Data from patent US20240091318A1, “COMBINATION THERAPY COMPRISING LONG ACTING GLP-1/GLUCAGON AND NPY2 RECEPTOR AGONISTS” (Boehringer Ingelheim International GmbH, priority 2022, published 2024).

How the values were obtained:
[1] = Effect on body weight loss and food intake in wildtype Diet Induced Obesity (DIO) mice; assay type: in vivo; conditions: for BW 30 nmol/kg 5 day (body weight loss vs. vehicle group): 30 nmol/kg s.c. once daily
Excerpt: Effect on Body Weight Loss in Wildtype Diet Induced Obesity Mice
Male C57BL6/J pre-fed on 60% high fat diet were obtained from The Jackson Laboratories at >16 weeks of age. Upon arrival of the Diet Induced Obesity (DIO) mice, the mice where single housed to obtain accurate and individual food intake measurements of each animal and assigned an animal number. […] During the entire study animals had ad libitum access to food and water.
Before start of treatment a stratified randomization was performed based on the body weight measured in week −1 prior study start. At study start the age of mice was around 20 weeks. Bodyweight and food intake were measured daily before compound administration. Animals were dosed around one hour before start of the night phase by subcutaneous injection of 30 nmol/kg once daily for 5 till 28 days depending on the experiment. Control animals were dosed by subcutaneous injection daily with vehicle.

[2] = Effect on acute food intake (AFI) in normal NMRI mice; assay type: in vivo; conditions: male NMRI mice, 10 nmol/kg s.c. once, % vs. vehicle group
Protocol: Effect on Acute Food Intake in Normal NMRI Mice
Male NMRI mice were obtained from Charles River (Charles River, Research Models & Services Germany GmbH) or from JanVier (JanVier Labs, France) at 5 weeks of age. […] Room temperature was controlled to 21° C.±1° C., with 60%±20% humidity.
Animals were transferred 5-7 days before the start of the study to a real-time food intake monitoring system, HM-2 system (MBRose, Denmark), to allow acclimatization to experimental conditions. As the animals were uniquely identified with microchips, each individual animal was identified by its microchip upon entry and exit from the food channel. Randomization of the mice for each study group (n=7-8) was based on body weight measured the day before the start of the study. A vehicle-treated (50 mM phosphate buffer pH7 with 5% Mannitol) group was included in each experiment. Six hours before the start of the night phase animals were fasted. One hour before the dark phase animals were dosed once subcutaneously (10 nmol/kg) with test peptide. […] The food intake of the treated groups was normalized (in %) to the average food intake of the group receiving vehicle (Table 1). Statistical significance was evaluated using One-way analysis of variance with Turkey's multiple comparison test. P<0.05 was considered statistically significant.

| SMILES | BW 30 nmol/kg 5 day (body weight loss vs. vehicle group) [1] [%] | AFI 10 nmol/kg 24 h (food intake normalized to vehicle group) [2] [%] | body weight lowering efficacy (% BW), combination with Compound I compared to combination with semaglutide ([1]; once daily (FIGS. 6A, 8A vs. 5A, 7A)) | duration of food intake reduction, combination with Compound I vs. combination with semaglutide ([1]; once daily (FIGS. 6B, 8B vs. 5B, 7B)) | total food intake, combination with Compound I ([1]; once daily, area under the curve of food intake (FIGS. 6D, 8D)) | body weight loss in combination with Compound I ([1]; once daily, combination with Compound I (FIGS. 6A, 8A, 10A)) | effect on body weight in combination with semaglutide ([1]; once daily, combination with semaglutide (FIGS. 5A, 7A, 9A)) |
| --- | --- | --- | --- | --- | --- | --- | --- |
| CC[C@H](C)[C@H](NC(=O)[C@H](CCC(=O)O)NC(=O)[C@H](CCC(=O)O)NC(=O)[C@@H]1CCCN1C(=O)[C@H](CO)NC(=O)[C@H](C)NC(=O)[C@H](CC(=O)O)NC(=O)[C@H](C)NC(=O)[C@H](CCC(=O)O)NC(=O)[C@@H]1CCCN1C(=O)[C@H](CCCCNC(=O)COCCOCCNC(=O)COCCOCCNC(=O)CC[C@H](NC(=O)CCCCCCCCCCCCCCCCC(=O)O)C(=O)O)NC(=O)[C@H](CCC(=O)O)NC(=O)[C@@H]1CCCN1C(=O)[C@H](C)NC(=O)CC(C)C)C(=O)N[C@@H](CCC(N)=O)C(=O)N[C@@H](CCCNC(=N)N)C(=O)N[C@@H](Cc1ccc(O)cc1)C(=O)N[C@@H](Cc1ccc(O)cc1)C(=O)N[C@H](C(=O)N[C@@H](CO)C(=O)N[C@@H](CC(C)C)C(=O)N[C@@H](CCCNC(=N)N)C(=O)N[C@@H](Cc1c[nH]cn1)C(=O)N[C@@H](Cc1ccc(O)cc1)C(=O)N[C@@H](Cc1ccc(O)cc1)C(=O)N[C@@H](CC(N)=O)C(=O)N[C@@H](Cc1c[nH]c2ccccc12)C(=O)N[C@@H](CC(C)C)C(=O)N[C@H](C(=O)N[C@@H](CCCNC(=N)N)C(=O)N[C@@H](CCC(N)=O)C(=O)N[C@@H](CCCNC(=N)N)C(=O)N[C@@H](Cc1ccc(O)cc1)C(N)=O)[C@@H](C)O)C(C)C [Compound J, N{alpha-4}-(3-methylbutanoyl)-N{epsilon-7}-[2-(2-{2-[2-(2-{2-[(4S)-4-carboxy-4-(17-carboxyheptadecanamido)butanamido]ethoxy}ethoxy)acetamido]ethoxy}ethoxy)acetamido]-[4A,7K,9E,10A,17I,18Q,22V,28Y,30W,31L]hPYY(4-36)] | 12.2 | 29 |  |  |  |  |  |
| CC(C)CC(=O)N[C@@H](C)C(=O)N1CCC[C@H]1C(=O)N[C@@H](C)C(=O)N[C@@H](CCCCNC(=O)COCCOCCNC(=O)COCCOCCNC(=O)CC[C@H](NC(=O)CCCCCCCCCCCCCCCCC(=O)O)C(=O)O)C(=O)N1CCC[C@H]1C(=O)N[C@@H](CCC(=O)O)C(=O)N[C@@H](CCC(=O)O)C(=O)N[C@@H](CC(=O)O)C(=O)N[C@@H](C)C(=O)N[C@H](C(=O)N1CCC[C@H]1C(=O)N[C@@H](CCC(=O)O)C(=O)N[C@@H](CCC(=O)O)C(=O)N[C@@H](CC(C)C)C(=O)N[C@@H](CCC(N)=O)C(=O)N[C@@H](CCCNC(=N)N)C(=O)N[C@@H](Cc1ccc(O)cc1)C(=O)N[C@@H](Cc1ccc(O)cc1)C(=O)N[C@H](C(=O)N[C@@H](CO)C(=O)N[C@@H](CC(C)C)C(=O)N[C@@H](CCCNC(=N)N)C(=O)N[C@@H](Cc1c[nH]cn1)C(=O)N[C@@H](Cc1ccc(O)cc1)C(=O)N[C@@H](Cc1ccc(O)cc1)C(=O)N[C@@H](CC(N)=O)C(=O)N[C@@H](Cc1c[nH]c2ccccc12)C(=O)N[C@@H](CC(C)C)C(=O)N[C@H](C(=O)N[C@@H](CCCNC(=N)N)C(=O)N[C@@H](CCC(N)=O)C(=O)N[C@@H](CCCNC(=N)N)C(=O)N[C@@H](Cc1ccc(O)cc1)C(N)=O)[C@@H](C)O)C(C)C)[C@@H](C)O [Compound A, N{alpha-4}-(3-methylbutanoyl)-N{epsilon-7}-[2-(2-{2-[2-(2-{2-[(4S)-4-carboxy-4-(17-carboxyheptadecanamido)butanamido]ethoxy}ethoxy)acetamido]ethoxy}ethoxy)acetamido]-[4A,6A,7K,9E,13T,18Q,22V,28Y,30W,31L]hPYY(4-36)] | 6.7 | 39 |  |  |  |  |  |
| CC[C@H](C)[C@H](NC(=O)[C@H](CCC(=O)O)NC(=O)[C@H](CCC(=O)O)NC(=O)[C@@H]1CCCN1C(=O)[C@H](CO)NC(=O)[C@H](C)NC(=O)[C@H](CC(=O)O)NC(=O)[C@H](CCC(=O)O)NC(=O)[C@H](CCC(=O)O)NC(=O)[C@@H]1CCCN1C(=O)[C@H](CCCCNC(=O)COCCOCCNC(=O)COCCOCCNC(=O)CC[C@H](NC(=O)CCCCCCCCCCCCCCCCC(=O)O)C(=O)O)NC(=O)[C@H](C)NC(=O)[C@@H]1CCCN1C(=O)[C@H](C)NC(=O)CC(C)C)C(=O)N[C@@H](CCC(N)=O)C(=O)N[C@@H](CCCNC(=N)N)C(=O)N[C@@H](Cc1ccc(O)cc1)C(=O)N[C@@H](Cc1ccc(O)cc1)C(=O)N[C@H](C(=O)N[C@@H](CO)C(=O)N[C@@H](CC(C)C)C(=O)N[C@@H](CCCNC(=N)N)C(=O)N[C@@H](Cc1c[nH]cn1)C(=O)N[C@@H](Cc1ccc(O)cc1)C(=O)N[C@@H](Cc1ccc(O)cc1)C(=O)N[C@@H](CC(N)=O)C(=O)N[C@@H](Cc1c[nH]c2ccccc12)C(=O)N[C@@H](CC(C)C)C(=O)N[C@H](C(=O)N[C@@H](CCCNC(=N)N)C(=O)N[C@@H](CCC(N)=O)C(=O)N[C@@H](CCCNC(=N)N)C(=O)N[C@@H](Cc1ccc(O)cc1)C(N)=O)[C@@H](C)O)C(C)C [Compound E, N{alpha-4}-(3-methylbutanoyl)-N{epsilon-7}-[2-(2-{2-[2-(2-{2-[(4S)-4-carboxy-4-(17-carboxyheptadecanamido)butanamido]ethoxy}ethoxy)acetamido]ethoxy}ethoxy)acetamido]-[4A,6A,7K,9E,17I,18Q,22V,28Y,30W,31L]hPYY(4-36)] | 7.3 | 48 | greater body weight lowering efficacy | longer-lasting effect on food intake | pronounced total food intake reduction | Synergistic body weight loss | synergistic effect |
